Activity calls are given as the source filed them. How the calls were made is not given here.
Test: E-selectin induction blockers, endothelial cells – imaging, retest plus dose response, cell count, confirmation (AID 1288);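 further: 0% = stimulated vehicle wells and 100% = unstimulated vehicle wells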
Details: human endothelial cells, TNFa-induced E-selectin, imaging; at 2 µM; active compounds read high

Compound | inhibition
O=c1[nH]cnc2cc(-c3ccccc3)sc12 | 7.67% (inactive)
C/C(=N\NC(=O)CC1N=C(Cc2ccccc2)NNC1=O)c1ccc(C)cc1 (stereo not given) | 3.58% (inactive)
C=CCNC(=S)NNC(=O)c1ccc(Br)cc1 | 38.3% (inactive)
CCOC(=O)c1sc(=N)n(-c2ccc(OC)cc2)c1C | -1.33% (inactive)
O=C1c2cccc(OCC(=O)N3CCCc4ccccc43)c2CCN1Cc1ccc(Br)cc1 | -5.27% (inactive)
O=C(c1ccccc1)N1CCN(c2ccccc2F)CC1 | 9.93% (inactive)
CCOC(=O)c1c(NC(=O)CSc2nnc(C)c(=O)[nH]2)sc(C)c1C | 8.64% (inactive)
CCOC(=O)N1CCN(C(=O)COc2cccc3c2CCN(Cc2cccc(C)c2)C3=O)CC1 | 8.76% (inactive)
COc1ccc(CCN(C)c2ccc(S(=O)(=O)N3CCCC3)cn2)cc1OC | 28.4% (inactive)
COc1ccc(S(=O)(=O)Cc2ccc(C(=O)N3CCOCC3)o2)cc1 | 26.4% (inactive)
Cc1ccc(S(=O)(=O)N(C)CCCC(=O)Nc2cc(C)ccc2C)cc1 | -2.3% (inactive)
Cn1c(CCNC(=O)c2ccc(Cl)c(Cl)c2)nnc1SCc1ccc(Cl)c(Cl)c1 | 6.96% (inactive)
Cc1cccc(NC(=S)Nc2ccccn2)c1C | -0.54% (inactive)
Clc1ccc(CNc2ccc3nnc(-c4ccccc4)n3n2)cc1 | 0.04% (inactive)
O=C(CN1CCN(Cc2ccccc2Cl)C1=O)NCc1ccco1 | 8.68% (inactive)
CCC1Sc2ccccc2N(CC(=O)NCc2ccc3c(c2)OCO3)C1=O (stereo not given) | 9.94% (inactive)
Cc1cc(SCc2cc(=O)[nH]c3ccccc23)nc2ccccc12 | -9.63% (inactive)
CCOc1ccc(N2CC(C(=O)NCCCN3CCOCC3)CC2=O)cc1 (stereo not given) | 11.2% (inactive)
O=C(O)CSc1nnc(-c2ccncc2)n1CCc1ccccc1 | 28.9% (inactive)
CCC(=O)Nc1c(-c2ccc(OC)cc2)c(=O)c2ccccc2n1C | 6.09% (inactive)
CN(C)S(=O)(=O)N1CCN(CC(=O)Nc2cc(Cl)ccc2Cl)CC1 | -3.1% (inactive)
CN1CCN(S(=O)(=O)c2ccc(NC(=O)c3ccc(F)cc3)cc2)CC1 | 5.58% (inactive)
O=C(OCC1CC(c2ccccn2)=NO1)c1ccc(Br)cc1 (stereo not given) | 9.31% (inactive)
C=CCNC(=O)/C=C/c1cccs1 | -0.12% (inactive)
COc1ccccc1NC(=S)N(Cc1ccco1)Cc1cc2cccc(C)c2[nH]c1=O | 30.6% (inactive)

Compound | inhibition
O=C(c1ccccc1F)N1CCN(c2ccccc2F)CC1 | 27.8% (inactive)
CCCCOC(=O)CCn1c(=S)oc2ccccc21 | 1.96% (inactive)
COc1ccccc1CCNC(=O)c1cnccn1 | 16.6% (inactive)
C=CCNS(=O)(=O)c1nc(C)c(Cl)c(C)c1C#N | 0.74% (inactive)
CCOC(=O)c1cc(-c2ccccc2)sc1NC(=S)Nc1cccc(C)n1 | -0.25% (inactive)
O=C(c1cccs1)N1CCN=C1SCc1ccccc1 | 9.69% (inactive)
Cc1nc2ccc(NC(=O)c3cc(S(=O)(=O)N4CCOCC4)ccc3C)cc2s1 | 16% (inactive)
CC1CN(C(=O)/C(C#N)=C2\N=C(NC(=O)c3ccccc3Cl)c3ccccc32)CC(C)O1 (stereo not given) | -0.23% (inactive)
COc1ccccc1NC(=O)c1ccc(S(=O)(=O)N2CCCC2)cc1 | 3.22% (inactive)
O=C1CC(c2ccccc2)CC2=C1CN(C1CCCCC1)CN2 (stereo not given) | 10.2% (inactive)
CC(=O)C1=C(C)NC(SCc2cccc3ccccc23)=C(C#N)C1c1ccco1 (stereo not given) | 5.13% (inactive)
NC(=O)c1ccc(-c2ccc(Br)cc2)o1 | 36.5% (inactive)
C=CCNC(=S)NNC(=O)c1ccc(OCC)cc1 | 1.76% (inactive)
COC(=O)c1cc2c(s1)CS(=O)C2 (stereo not given) | 14.6% (inactive)
CCN(CC)CCNC(=O)CS(=O)Cc1nc(-c2ccccc2Cl)oc1C (stereo not given) | 3.34% (inactive)
Cc1ccc(N2CCN(/N=C/c3cccs3)CC2)cc1 | 1.13% (inactive)
Cc1nc2ccccc2c(=O)n1/N=C/c1ccc(O)cc1 | 4.58% (inactive)
C/C=C/Cn1c(N2CCCCCC2)nc2c1c(=O)[nH]c(=O)n2C | 17.1% (inactive)
Cc1ccc(CNC(=O)CCc2nc3ccccc3c(=O)[nH]2)cc1 | 15.6% (inactive)
CN(C)CC1CSCCC1(O)c1ccc(Cl)cc1 (stereo not given) | 20.4% (inactive)
C=CCc1cccc(/C=N/NC(=O)CCCNc2ccc(C)cc2)c1O | 11.2% (inactive)
COc1ccc(C(=O)C2(C)N(O)C(C)C(c3cccs3)=[N+]2[O-])cc1 (stereo not given) | 9.94% (inactive)
C=CCN(CC=C)C(=O)Nc1cc(Cl)ccc1OC | 15.5% (inactive)
COc1ccc(Nc2nc(C)cc(C)c2C#N)cc1OC | 6.96% (inactive)
CCc1cc[n+](CC(=O)Nc2ccc(Cl)cc2Cl)cc1 | 5.98% (inactive)

From PubChem BioAssay AID1288 (Columbia University Molecular Screening Center, 2008)
